According to ChEMBL document CHEMBL1201862, “PubChem BioAssay data set” (2004):
Activity calls are given as the source filed them.

Columns and labels:
Vero = assay: cells; assay type: functional, cell-based; details: Chlorocebus sabaeus
cells [1] = assay type: functional, cell-based
[2] = target: T1, Trace amine-associated receptor 1 (Homo sapiens, UniProt Q96RJ0); assay: Fluorescence-based cell-based high throughput dose response assay to identify agonists of the human trace amine associated receptor 1 (TAAR1).; assay type: functional
T1 sequence (Q96RJ0 whole entry): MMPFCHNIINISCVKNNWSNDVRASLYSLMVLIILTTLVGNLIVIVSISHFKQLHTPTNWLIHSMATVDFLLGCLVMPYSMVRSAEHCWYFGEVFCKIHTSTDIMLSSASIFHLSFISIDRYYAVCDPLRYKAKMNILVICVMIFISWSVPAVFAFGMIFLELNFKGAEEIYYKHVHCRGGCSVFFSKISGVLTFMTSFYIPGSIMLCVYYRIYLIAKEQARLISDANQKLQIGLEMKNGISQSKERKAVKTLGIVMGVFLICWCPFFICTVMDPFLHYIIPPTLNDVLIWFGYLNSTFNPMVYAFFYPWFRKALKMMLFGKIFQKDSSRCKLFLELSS

[3] = target: T1, Trace amine-associated receptor 1; assay: Counterscreen for agonists of the human trace amine associated receptor 1 (hTAAR1): Fluorescence-based cell-based high throughput dose response assay to identify hTAAR1 agonist that also desensitize TAAR1 receptor response.; assay type: functional
cells [4] = assay type: functional, cell-based; remark: listed apart in the source
Jurkat [5] = assay: SAR Analysis of small molecule inhibitors of […] specific antigen receptor-induced NF-kB activation in a Jurkat cell line using a luminescence assay - Set 3. [Related pubchem assays (depositor defined):AID435022, AID435025, AID465]; assay type: functional, cell-based; details: Homo sapiens
HEK293 [6] = assay: SAR Analysis of small molecule inhibitors of B-cell specific antigen receptor-induced NF-kB activation in a HEK-293T cell line using a luminescence assay - Set 2. [Related pubchem assays (depositor defined):AID435022, AID435025, AID489021]; assay type: functional, cell-based; details: Homo sapiens
HEK293 [7] = assay: cytotoxicity in HEK293T NF-kB-Luc cells, SAR follow-up, cytotoxicity control for NF-kB activator project, cell-based, resazurin fluorescence (AID 493251); assay type: functional; details: Homo sapiens
[8] = target: T2, Mannose-6-phosphate isomerase (Homo sapiens, UniProt P34949); assay: human PMI inhibitors, high substrate, primary screen, biochemical, fluorescence intensity, high mannose 6-phosphate (AID 1220)
T2 sequence (P34949 whole entry): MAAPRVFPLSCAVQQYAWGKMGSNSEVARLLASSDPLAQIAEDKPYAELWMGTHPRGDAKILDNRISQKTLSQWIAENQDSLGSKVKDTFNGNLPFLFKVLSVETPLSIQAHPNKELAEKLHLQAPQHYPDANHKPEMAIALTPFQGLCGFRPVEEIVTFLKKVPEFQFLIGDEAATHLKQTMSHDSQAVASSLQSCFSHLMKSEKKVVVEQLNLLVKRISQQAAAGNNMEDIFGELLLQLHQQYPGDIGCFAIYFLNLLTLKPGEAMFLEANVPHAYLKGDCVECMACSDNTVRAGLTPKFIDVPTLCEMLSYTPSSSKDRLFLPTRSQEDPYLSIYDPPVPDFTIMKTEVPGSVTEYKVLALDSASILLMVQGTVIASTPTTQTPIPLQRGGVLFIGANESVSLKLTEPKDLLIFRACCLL

[9] = Luminescence Cell-Based Dose Retest to Confirm Inhibitors of Cancer Stem Cells. [Related pubchem assays (depositor defined):AID2717, AID2721]; assay type: functional; details: Homo sapiens
[10] = cytotoxicity in HMLE control line with eGFP shRNA, dose response, counter-screen for HMLE_sh_ECad selective toxicity project, cell-based, HMLE_sh_eGFP, luminescence (AID 463074); assay type: functional, Homo sapiens;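 also: HMLE human mammary epithelial cells expressing control shRNA against eGFP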
[11] = target: T3, Tyrosyl-DNA phosphodiesterase 2 (Homo sapiens, UniProt O95551); assay: human TDP2 enzyme inhibitors, dose response, biochemical, epi absorbance, IC50 (AID 743297)
T3 sequence (O95551 whole entry): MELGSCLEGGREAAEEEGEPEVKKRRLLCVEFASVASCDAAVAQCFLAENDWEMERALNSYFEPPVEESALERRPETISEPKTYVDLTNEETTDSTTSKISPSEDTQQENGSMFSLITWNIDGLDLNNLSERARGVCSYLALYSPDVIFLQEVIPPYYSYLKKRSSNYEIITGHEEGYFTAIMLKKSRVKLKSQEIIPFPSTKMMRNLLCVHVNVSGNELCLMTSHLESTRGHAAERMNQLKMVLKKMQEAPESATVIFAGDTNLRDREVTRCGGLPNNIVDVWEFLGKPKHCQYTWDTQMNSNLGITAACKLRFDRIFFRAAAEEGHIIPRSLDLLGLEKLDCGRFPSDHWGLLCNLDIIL

[12] = inhibitors of firefly luciferase expression or activity, dose response, H4 neuroglioma cells, luminescence (AID 1990); assay type: functional, cell-based
[13] = luciferase reporter signal reduction – luminescence, H4-C neuroglioblastoma cells, dose response (AID 2458); assay type: functional, cell-based;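 also: H4 neuroglioblastoma cells stably carrying a luciferase reporter gene fusion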
cells [14] = assay type: functional, cell-based; remark: listed apart in the source
[15] = Luminescence Cell-Based Dose Response HTS to Identify Inhibitors of 5'UTR Stem-Loop Driven Prion Protein mRNA Translation in H4 Neuroglioblastoma Cells. [Related pubchem assays: 1827 (Project Summary), 1813 (Primary HTS)]; assay type: functional
[16] = inhibitors of SNCA 5'UTR-driven reporter translation, confirmation, H4 neuroglioma cells, luminescence (AID 1988); assay type: functional, cell-based
[17] = inhibitors of SNCA 5'UTR-driven translation, confirmation, luminescence, H4 neuroglioblastoma cells, dose confirmation (AID 2454); assay type: functional, cell-based;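 also: H4 neuroglioblastoma cells carrying an alpha-synuclein 5'UTR luciferase reporter; potency for inhibition of the luciferase signal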
[18] = growth induction of Burl-1 ts yeast mutant, dose response, counter-screen for SUMOylation pathway inhibitor project, whole organism, S. cerevisiae, luminescence (AID 463199); assay type: functional
[19] = inhibitors of cytokine-induced nitrite release, dose response, cell-based, Griess absorbance, INS-1E, dry powder, set 3 (AID 488870); assay type: functional; details: Rattus norvegicus
Jurkat [20] = assay: SAR Analysis of small molecule inhibitors of T-cell specific antigen receptor-induced NF-kB activation in a Jurkat cell line using a luminescence assay - Set 2. [Related pubchem assays (depositor defined):AID435003, AID435012, AID465]; assay type: functional, cell-based; details: Homo sapiens
HEK293 [21] = assay: SAR Analysis of small molecule inhibitors of T-cell specific antigen receptor-induced NF-kB activation in a HEK-293T cell line using a luminescence assay - Set 2. [Related pubchem assays (depositor defined):AID435003, AID435012, AID489026]; assay type: functional, cell-based; details: Homo sapiens
[22] = target: Dual specificity protein phosphatase 3 (Homo sapiens, UniProt P51452); assay: SAR VHR1 Fluorescent Assay for In Vitro dose response studies Set 3. [Related pubchem assays (depositor defined):AID1654, AID1661, AID1878]; assay type: functional
Sequence of Dual specificity protein phosphatase 3 (P51452 whole entry): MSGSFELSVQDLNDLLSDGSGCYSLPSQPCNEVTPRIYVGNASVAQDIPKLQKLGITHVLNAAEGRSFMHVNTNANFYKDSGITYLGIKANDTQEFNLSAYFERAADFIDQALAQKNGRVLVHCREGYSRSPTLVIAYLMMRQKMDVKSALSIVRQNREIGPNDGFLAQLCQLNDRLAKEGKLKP

[23] = target: T4, Short transient receptor potential channel 4 (Mus musculus, UniProt Q9QUQ5); assay: mouse TRPC4 channel activators, dose response, cell-based, HEK293 TRPC4/mu-opioid, Fluo-4 calcium (AID 434937); assay type: functional
T4 sequence (Q9QUQ5 whole entry): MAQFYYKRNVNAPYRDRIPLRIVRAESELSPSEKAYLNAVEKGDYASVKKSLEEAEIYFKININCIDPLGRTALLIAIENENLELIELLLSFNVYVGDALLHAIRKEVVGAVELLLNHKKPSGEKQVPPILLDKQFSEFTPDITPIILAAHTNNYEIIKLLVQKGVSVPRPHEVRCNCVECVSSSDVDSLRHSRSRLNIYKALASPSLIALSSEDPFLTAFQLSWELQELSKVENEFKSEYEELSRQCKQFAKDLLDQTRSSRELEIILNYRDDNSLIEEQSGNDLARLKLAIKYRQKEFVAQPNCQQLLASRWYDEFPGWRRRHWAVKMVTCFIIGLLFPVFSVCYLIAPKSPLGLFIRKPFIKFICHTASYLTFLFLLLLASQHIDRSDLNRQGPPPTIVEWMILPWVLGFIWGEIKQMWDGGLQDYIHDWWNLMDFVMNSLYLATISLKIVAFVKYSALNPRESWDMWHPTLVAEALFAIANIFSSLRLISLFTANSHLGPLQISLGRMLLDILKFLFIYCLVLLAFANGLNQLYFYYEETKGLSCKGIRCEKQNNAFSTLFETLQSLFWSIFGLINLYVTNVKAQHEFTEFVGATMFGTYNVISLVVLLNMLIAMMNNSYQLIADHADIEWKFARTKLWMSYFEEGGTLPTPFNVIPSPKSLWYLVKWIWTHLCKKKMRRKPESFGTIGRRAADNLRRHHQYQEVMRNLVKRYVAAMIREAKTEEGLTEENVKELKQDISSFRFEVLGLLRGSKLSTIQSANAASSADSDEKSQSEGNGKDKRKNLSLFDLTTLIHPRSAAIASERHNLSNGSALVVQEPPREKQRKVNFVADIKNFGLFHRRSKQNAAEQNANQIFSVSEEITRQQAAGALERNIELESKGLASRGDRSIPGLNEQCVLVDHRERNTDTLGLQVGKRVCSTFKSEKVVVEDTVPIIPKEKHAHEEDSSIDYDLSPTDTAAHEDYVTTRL

[24] = target: Delta-type opioid receptor (Homo sapiens, UniProt P41143); assay: Counterscreen for agonists of heterodimerization of the mu 1 (OPRM1) and delta 1 (OPRD1) opioid receptors: Luminescence-based cell-based high throughput dose response assay to identify agonists of OPRD1 homodimerization. [Related pubchem assays (depositor defined):AID504326, AID504355, AID504692, AID504904, AID504905]; assay type: functional
Sequence of Delta-type opioid receptor (P41143 whole entry): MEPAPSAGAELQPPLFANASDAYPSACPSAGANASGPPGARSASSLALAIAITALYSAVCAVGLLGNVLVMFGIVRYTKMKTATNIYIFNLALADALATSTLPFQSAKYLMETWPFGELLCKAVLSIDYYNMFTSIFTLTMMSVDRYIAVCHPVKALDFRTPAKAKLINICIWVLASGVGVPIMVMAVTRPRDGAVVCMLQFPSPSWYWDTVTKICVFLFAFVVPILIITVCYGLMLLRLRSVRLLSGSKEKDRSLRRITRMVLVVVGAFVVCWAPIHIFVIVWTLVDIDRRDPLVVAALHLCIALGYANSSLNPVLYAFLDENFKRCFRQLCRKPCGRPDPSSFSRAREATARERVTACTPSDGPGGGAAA

Mu-type opioid receptor = Mu-type opioid receptor (Homo sapiens, UniProt P35372); assay: Counterscreen for agonists of heterodimerization of the mu 1 (OPRM1) and delta 1 (OPRD1) opioid receptors: Luminescence-based cell-based high throughput dose response assay to identify agonists of OPRM1 homodimerization.; assay type: functional;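 also: U2OS cells expressing OPRM1 and beta-arrestin as split beta-galactosidase partners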
Sequence of Mu-type opioid receptor (P35372 whole entry): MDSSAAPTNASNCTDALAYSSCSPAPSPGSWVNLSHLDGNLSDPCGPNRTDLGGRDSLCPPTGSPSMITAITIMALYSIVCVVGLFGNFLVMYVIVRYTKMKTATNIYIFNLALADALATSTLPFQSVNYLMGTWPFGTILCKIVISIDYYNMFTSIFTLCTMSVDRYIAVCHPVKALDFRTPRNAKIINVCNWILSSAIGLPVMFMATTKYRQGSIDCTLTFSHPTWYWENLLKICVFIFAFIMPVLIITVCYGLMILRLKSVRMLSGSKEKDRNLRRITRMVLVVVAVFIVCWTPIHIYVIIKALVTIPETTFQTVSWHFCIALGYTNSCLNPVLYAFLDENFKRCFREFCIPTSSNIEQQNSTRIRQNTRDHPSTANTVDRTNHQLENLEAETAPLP

[25] = target: 5-hydroxytryptamine receptor 5A (Homo sapiens, UniProt P47898); assay: Counterscreen for agonists of OPRM1-OPRD1 heterodimerization: luminescence-based cell-based high throughput dose response assay to identify agonists of 5-hydroxytryptamine (serotonin) 5A receptor (HTR5A). [Related pubchem assays (depositor defined):AID504326, AID504355, AID504692, AID504904, AID504905]; assay type: functional
Sequence of 5-hydroxytryptamine receptor 5A (P47898 whole entry): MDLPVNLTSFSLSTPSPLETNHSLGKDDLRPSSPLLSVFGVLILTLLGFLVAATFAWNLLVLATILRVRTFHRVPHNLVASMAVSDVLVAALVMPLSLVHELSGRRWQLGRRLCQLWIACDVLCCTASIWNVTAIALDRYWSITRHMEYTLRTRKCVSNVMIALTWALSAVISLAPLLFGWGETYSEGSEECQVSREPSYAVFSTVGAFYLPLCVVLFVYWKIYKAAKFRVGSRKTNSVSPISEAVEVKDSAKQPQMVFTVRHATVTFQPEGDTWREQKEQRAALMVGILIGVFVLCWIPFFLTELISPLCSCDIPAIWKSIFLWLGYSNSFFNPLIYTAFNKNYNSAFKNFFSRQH

## CCCCOc1ccc(C(=O)Nc2ccc(N3CCN(C)CC3)cc2)cc1
Vero
  IC50: 24.8 µM (active)
Cells [1]
  IC50: > 29.9 µM (inactive)
[2]
  EC50: 10.2 µM (inactive)
[3]
  IC50: > 29.9 µM (inactive)
Cells [4]
  EC50: > 29.9 µM (inactive)

## CCOc1ccc(-c2nc(CSCC(=O)NCCOC)c(C)o2)cc1
Jurkat [5]
  IC50: > 80 µM (inactive)
HEK293 [6]
  IC50: > 80 µM (inactive)
HEK293 [7]
  IC50: > 80 µM (inactive)

## Oc1c(/C=N/c2cccc3nsnc23)ccc2ccccc12
[8]
  IC50: > 50 µM (not active)
[9]
  AC50: 23.7 µM (active)
[10]
  AC50: 29.4 µM (active)
[11]
  IC50: 80.5 µM (inactive)

## COc1ccc2cc3c(N)nn(C(=O)c4ccccc4Cl)c3nc2c1
[12]
  EC50: < 0.1 µM (active)
[13]
  EC50: 1.43 µM (active)
Cells [14]
  EC50: 0.736 µM (active)
[15]
  EC50: < 0.1 µM (active)
[16]
  EC50: 9.14 µM (active)
[17]
  EC50: > 12 µM (not active)
[18]
  AC50: 47.8 µM (active)

## COc1ccc(NC(=O)N(C)C[C@@H]2Oc3c(NC(=O)Nc4cccc5ccccc45)cccc3C(=O)N([C@@H](C)CO)C[C@H]2C)cc1
[19]
  AC50: 43.7 µM (active)

## CC(=O)N1CCc2cc(NC(=O)c3ccc([N+](=O)[O-])o3)ccc21
HEK293 [7]
  IC50: > 80 µM (inactive)
Jurkat [20]
  IC50: 49.5 µM (inactive)
HEK293 [21]
  IC50: 50.5 µM (inactive)

## COc1ccc(-c2nnc(Nc3nc4c(F)cccc4s3)o2)cc1
[22]
  IC50: 3.71 µM (active)

## OCC1(CCc2ccccc2)CCN(Cc2cccn2-c2cccnc2)CC1
[23]
  EC50: 0.149 µM (active)
[24]
  EC50: > 92.5 µM (inactive)
Mu-type opioid receptor
  EC50: 52.6 µM (inactive)
[25]
  EC50: > 92.5 µM (inactive)
